Converted amounts (≈) assume the structure as drawn. The source made the active and inactive calls. The calls are words filed in the database; no cut-off is given here.
What was measured:
MCF7 [1] = experiment: Anticancer activity against Homo sapiens (human) MCF-7 cells assessed as cell survival at 1 ug/ml after 24 hr by MTT assay (reference value: 100%); type: functional; details: MCF7, 24 h, read-out: Survival
MCF7 [2] = experiment: Anticancer activity against Homo sapiens (human) MCF-7 cells assessed as cell survival at 10 ug/ml after 24 hr by MTT assay (reference value: 100%); type: functional; details: MCF7, 24 h, read-out: Survival
MCF7 [3] = experiment: Anticancer activity against Homo sapiens (human) MCF-7 cells assessed as cell survival at 100 ug/ml after 24 hr by MTT assay (reference value: 100%); type: functional; details: MCF7, 24 h, read-out: Survival
MCF7 [4] = experiment: Anticancer activity against Homo sapiens (human) MCF-7 cells assessed as cell survival at 0.1 ug/ml after 24 hr by MTT assay (reference value: 100%); type: functional; details: MCF7, 24 h, read-out: Survival
MCF7 [5] = experiment: Anticancer activity against Homo sapiens (human) MCF-7 cells assessed as inhibition of cell survival after 24 hr by MTT assay; type: functional, cell-based; details: MCF7, 24 h
[6] = Antioxidant activity assessed as ABTS radical scavenging activity after 20 min by ELISA plate reader analysis; type: functional
[7] = test system: Radical scavenging activity; experiment: Antioxidant activity assessed as DPPH radical scavenging activity after 20 min by ELISA plate reader analysis; type: functional
MCF7 [8] = experiment: Induction of apoptotic DNA fragmentation in Homo sapiens (human) MCF-7 cells assessed as formation of comets at 50 ug/ml after 24 hr by comet assay; type: functional, cell-based
MCF7 [9] = experiment: Induction of apoptotic DNA fragmentation in Homo sapiens (human) MCF7 cells assessed as increase in tail length after 24 hr by comet assay; type: functional, cell-based
MCF7 [10] = experiment: Induction of apoptotic DNA fragmentation in Homo sapiens (human) MCF-7 cells assessed as increase in olive tail moment after 24 hr by comet assay; type: functional, cell-based
MCF7 [11] = experiment: Induction of apoptotic DNA fragmentation in Homo sapiens (human) MCF-7 cells assessed as increase in olive tail moment at 0.1 uM after 24 hr by comet assay; type: functional, cell-based
MCF7 [12] = experiment: Induction of apoptotic DNA fragmentation in Homo sapiens (human) MCF-7 cells assessed as formation of comets at 54 ug/ml after 24 hr by comet assay; type: functional, cell-based
MCF7 [13] = experiment: Induction of apoptotic DNA fragmentation in Homo sapiens (human) MCF-7 cells assessed as increase in tail length at 0.1 uM after 24 hr by comet assay; type: functional, cell-based

| Structure (SMILES) | viability at 1 µg/mL (MCF7 [1]) | viability at 10 µg/mL (MCF7 [2]) | viability at 100 µg/mL (MCF7 [3]) | viability at 0.1 µg/mL (MCF7 [4]) | IC50 (MCF7 [5]) | IC50 [6] | IC50 [7] | Activity (MCF7 [8]) | Activity (MCF7 [9]) | Activity (MCF7 [10]) | Activity (MCF7 [11]) | Activity (MCF7 [12]) | Activity (MCF7 [13]) |
| --- | --- | --- | --- | --- | --- | --- | --- | --- | --- | --- | --- | --- | --- |
| COc1ccc(-c2n[nH]cc2C2SCC(=O)N2n2c(S)nnc2COc2ccccc2)cc1 (stereo not given) | 100% | 96.8% | 46.5% | 100% | 85 µg/mL (≈ 177 µM) | – | – | – | – | – | – | – | – |
| O=C1O[C@H]([C@@H](O)CO)C(O)=C1O [ASCORBIC ACID] | – | – | – | – | – | 31.53 µg/mL (≈ 179 µM) | 18.74 µg/mL (≈ 106 µM) | – | – | – | – | – | – |
| O=C1CSC(c2c[nH]nc2-c2ccc(Cl)cc2)N1n1c(S)nnc1COc1ccc2ccccc2c1 (stereo not given) | 100% | 81.4% | 50.7% | 99.7% | 100 µg/mL (≈ 187 µM) | – | – | – | – | – | – | – | – |
| Cc1ccc(OCc2nnc(S)n2N2C(=O)CSC2c2c[nH]nc2-c2ccc(F)cc2)cc1 (stereo not given) | 74.7% | 87.5% | 71.4% | 80.8% | > 100 µg/mL | – | – | – | – | – | – | – | – |
| O=C1CSC(c2c[nH]nc2-c2ccc(F)cc2)N1n1c(S)nnc1COc1ccccc1 (stereo not given) | 69.4% | 76.5% | 33.6% | 65.9% | 30 µg/mL (≈ 64 µM) | 143.67 µg/mL (≈ 307 µM) | 27.16 µg/mL (≈ 58 µM) | Active | Dose-dependent effect | Dose-dependent effect | – | – | – |
| O=C1CSC(c2c[nH]nc2-c2ccc(F)cc2)N1n1c(S)nnc1COc1ccc2ccccc2c1 (stereo not given) | 100% | 99.8% | 96.5% | 100% | > 100 µg/mL | – | – | – | – | – | – | – | – |
| Cc1ccccc1OCc1nnc(S)n1N1C(=O)CSC1c1c[nH]nc1-c1ccc(Cl)cc1 (stereo not given) | 80.7% | 67.6% | 13.2% | 70% | 22 µg/mL (≈ 44.1 µM) | 73.03 µg/mL (≈ 146 µM) | 31.52 µg/mL (≈ 63.2 µM) | Active | Dose-dependent effect | Dose-dependent effect | – | – | – |
| Cc1ccccc1OCc1nnc(S)n1N1C(=O)CSC1c1c[nH]nc1-c1ccc(F)cc1 (stereo not given) | 83.1% | 92.5% | 62.1% | 81.4% | > 100 µg/mL | – | – | – | – | – | – | – | – |
| O=C1CSC(c2c[nH]nc2-c2ccc(Cl)cc2)N1n1c(S)nnc1COc1cccc2ccccc12 (stereo not given) | 70.5% | 60.3% | 51.8% | 101% | 100 µg/mL (≈ 187 µM) | – | – | – | – | – | – | – | – |
| COc1ccc(-c2n[nH]cc2C2SCC(=O)N2n2c(S)nnc2COc2ccccc2C)cc1 (stereo not given) | 87% | 84.7% | 25.4% | 81.5% | 29 µg/mL (≈ 58.6 µM) | 165.78 µg/mL (≈ 335 µM) | 46.95 µg/mL (≈ 94.9 µM) | Active | Dose-dependent effect | Dose-dependent effect | – | – | – |
| COc1ccc(-c2n[nH]cc2C2SCC(=O)N2n2c(S)nnc2COc2ccc(C)cc2)cc1 (stereo not given) | 95.4% | 90.2% | 43.7% | 95% | 78 µg/mL (≈ 158 µM) | – | – | – | – | – | – | – | – |
| COc1cccc2c1C(=O)c1c(O)c3c(c(O)c1C2=O)C[C@@](O)(C(=O)CO)C[C@@H]3O[C@H]1C[C@H](N)[C@H](O)[C@H](C)O1 | – | – | – | – | – | – | – | – | – | – | Active | Active | Active |
